“Also recorded” adds a separate entry of the source.

Some test systems named below: R88A; R149A; H145A; NTD mutants.
Format in all cases: binding, SARS-CoV-2

For `COc1ccc2cc([C@H](C)C(=O)O)ccc2c1` [Naproxen, naproxen], the “Mutations SPR (% Inhibition/NTD wt)” value was “R88 (55%), R149 (44%)” with R88A and “R88 (55%), R149 (44%)” in the assay on R149A.

Regarding Dihydrofolate [DHF], the “Mutations SPR (% Inhibition/NTD wt)” value is on record as “H145 (96%), R149 (83%)” with H145A and “H145 (96%), R149 (83%)” with R149A. The “effect of NTD mutations on SPR signal, in words” value in the assay with NTD mutants is “Mutations H145A and R149A strongly reduced the signal; also recorded: strong effects of the mutations R92A, Y111A and R88A”.

As for “RPKPQQF-OH [Substance P (1-7), Substance P (1-7) RPKPQQF-OH]”, the “effect of NTD mutations on SPR signal, in words” value in the assay with NTD mutants is “relatively small effects of the mutations with notable exceptions of W52A and Y111A”.

Values taken from PMC9698730 (Molecules, 2022).
